US20190359645A1, “2'3'-CYCLIC DINUCLEOTIDES COMPRISING CARBOCYCLIC NUCLEOTIDE” (Institute of Organic Chemistry and Biochemistry ASCR, V.V.I., priority 2018, published 2019)

These compounds were tested against T1, AQ STING (G230A-R293Q) (Homo sapiens, UniProt Q86WV6, G230A/H232R/R293Q) (assay: Differential scanning fluorimetry (DSF) with AQ STING). Conditions: thermal shift, truncated human AQ STING 0.1 mg/ml, 150 μM CDN; read-out: DSF ΔTm AQ STING.
T1 construct: truncated human WT STING or AQ STING (amino acid residues 140-343); 8xHis (N, cleaved yes); SUMO (N, cleaved yes); made in house; host or cells: E. coli Rosetta-gami B (DE3)
T1 sequence (Q86WV6 140-343 G230A/H232R/R293Q): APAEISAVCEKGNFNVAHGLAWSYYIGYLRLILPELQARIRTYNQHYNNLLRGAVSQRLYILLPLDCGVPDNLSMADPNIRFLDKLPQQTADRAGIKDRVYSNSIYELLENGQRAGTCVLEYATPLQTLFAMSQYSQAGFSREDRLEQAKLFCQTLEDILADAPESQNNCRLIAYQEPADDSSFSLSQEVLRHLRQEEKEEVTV
Type: binding
From the text: Both WT and AQ human STING (G230A-R^293Q) cDNA were amplified by the use of PCR (Phusion® High-Fidelity DNA Polymerase, cat. # M0530S, NEB, Ipswich, USA) using oligonucleotides hSTING140-BamH-For ([…]) (SEQ ID NO:5) and hSTING379-Not-Rev3 ([…]) (SEQ ID NO:6) from pUNOI-hSTING-WT (cat. # punol-hstingwt, InvivoGen, San Diego, USA) and pUNO1-hSTING-HAQ plasmids (punol-hsting-haq, InvivoGen, San Diego, USA). Purified PCR products were cleaved with restriction enzymes BamHI (cat. # R^0136S, NEB, Ipswich, USA) and NotI (cat. # R^0189S, NEB, Ipswich, USA) and cloned into the pSUMO vector linearized with the identical enzymes. Plasmid pSUMO was created by introducing 8-His-SUMO sequence between NdeI and BamHI sites of pHis-parallel2 plasmid (Clontech, Moutain View, USA). pSUMO-STING WT or pSUMO-STING AQ plasmids thus encoded truncated human WT STING or AQ STING (amino acid residues 140-343) with N-terminal 8×His and SUMO tag.
The recombinant WT STING and AQ STING proteins were overexpressed in Rosetta-gami B (DE3) competent cells (cat. #71136-3, Merck Millipore, Billerica, USA). Bacterial pellets were re-suspended in ice-cold lysis buffer containing 50 mmol·l^−1 TrisCl (cat. # T1503, Sigma Aldrich, Czech Republic) pH 8.0, 300 mmol·l^−1 NaCl, 3 mmol·l^−1 (3-mercaptoethanol (cat. # M6250, Sigma Aldrich, Czech Republic), 10% glycerol (cat. #G5516, Sigma Aldrich, Czech Republic) and 20 mmol·l^−1 imidazole (cat. #15513, Sigma Aldrich, Czech Republic) using Dounce homogenizer. DNase I (cat. # D5025, Sigma Aldrich, Czech Republic) and RNase A (cat. # R^6513, Sigma Aldrich, Czech Republic) were added (final concentration 50 μg/ml) together with MgCl2 (final concentration 5 mmol·l^−1) to the homogenate and bacteria were lysed using French Press G-M™ High-Pressure Cell Press Homogenizer (1500 psi, 3 cycles). Lysate was spun 30,000 g for 20 minutes and supernatant was gently stirred with Ni-NTA resin (cat. #745400.25 Macherey-Nagel, Duren, Germany) for 30 minutes. The resin was poured into a chromatography column, washed with 50 ml buffer A (50 mmol·l^−1 TrisCl (pH 8.0), 800 mmol·l^−1 NaCl, 3 mmol·l^−1β-mercaptoethanol; 10% glycerol; 20 mmol·l^−1 imidazole) and 8-His-SUMO tagged STING proteins were eluted with 15 ml buffer A containing 300 mmol·l^−1 imidazole. The eluted proteins were cleaved with recombinant SUMO protease (80 pig/ml of protein solution, cat. #12588018, ThermoFisher, Waltham, USA). The proteins were further purified by size exclusion chromatography using HiLoad 16/60 Superdex 75 (cat. #28989333, GE Healthcare Bio-Sciences, Pittsburgh, USA) in 50 mmol·l^−1 Tris C1 buffer pH 7.4 containing 150 mmol·l^−1 NaCl, and 10% glycerol. Proteins were concentrated with Amicon® Ultra-15 10 K device (cat. # UFC901008, Merck Millipore, Billerica, USA) and flash frozen in liquid N2.
WT and AQ allelic forms of STING protein were diluted to the final concentration 0.1 mg/ml in 100 mmol·l^−1 TrisCl buffer pH 7.4 containing, 150 mmol·l^−1 NaCl, 1:500 SYPRO Orange (cat. # S6650, ThermoFisher, Waltham, USA) and 150 μM CDN or water. 20 μL solutions of the reaction mixtures were pipetted in triplicates into 96 well optical reaction plates and thermal denaturation of samples were performed on real time PCR cycler (LightCycler® 480 Instrument II—Roche, Basel, Switzerland). The first derivative of the thermal denaturation curves was performed to calculate denaturing temperatures of STING-CDN complexes and STING apoproteins. The thermal shift for each CDN was calculated by subtracting the average denaturing temperature of STING apoprotein from the average denaturing temperature of STING CDN complex.

Compound | ΔTm at 150 µM
CSc1ncnc2c1ncn2[C@@H]1O[C@@H]2COP(=O)(O)OC3C(O)[C@@H](COP(=O)(O)OC2C1O)C[C@H]3n1cnc2c(=O)[nH]cnc21 (stereo partly drawn) [Compound 125, (1S,6R,8R,9R,10S,15R,17R,18R)-3,9,12,18-tetrahydroxy-8-[16-(methylsulfanyl)-9H-purin-9-yl]-17-(6-oxo-6,9-dihydro-1H-purin-9-yl)-2,4,7,11,13-pentaoxa-3λ^5,12λ^5-diphosphatricyclo[13.2.1.0^6,10]octadecane-3,12-dione] | 11.4 °C
Nc1ncnc2c1ncn2[C@@H]1O[C@@H]2COP(=O)(O)O[C@@H]3[C@@H](F)[C@@H](COP(=O)(O)O[C@H]2[C@H]1O)C[C@H]3n1cnc2c(=O)[nH]cnc21 [Compound 126, (1S,6R,8R,9R,10S,15R,17R,18S)-8-(6-amino-9H-purin-9-yl)-18-fluoro-3,9,12-trihydroxy-17-(6-oxo-6,9-dihydro-1H-purin-9-yl)-2,4,7,11,13-pentaoxa-3λ^5,12λ^5-diphosphatricyclo[13.2.1.0^6,10]octadecane-3,12-dione] | 15.8 °C
Nc1ncnc2c1ncn2[C@@H]1O[C@@H]2COP(=O)(O)O[C@@H]3[C@H](F)[C@@H](COP(=O)(O)O[C@H]2[C@H]1F)C[C@H]3n1cnc2c(=O)[nH]cnc21 [Compound 127] | 16.8 °C
